Earlier results, collected in patent US12171873B2, “Devices and methods for delivery of substances to animals” (Ruminant Biotech Corp Limited, priority 2020, dated 2024).

Tests used:
[1] = slaughtered steers, after 48 hour with holding period
[2] = in vivo

For `BrC(Br)Br` [Bromoform, bromoform], the “residues in meat and tissue” value [1] is listed as “no residues” and the level in milk [2] is listed as “no significant increase”.
